Patent publication US20260217653A1, “CRYSTALLINE COMPOUND OF AN LPAR1 ANTAGONIST” (CONTINEUM THERAPEUTICS, INC., priority 2023, published 2026)
“Also recorded” adds a separate entry of the source.

What was measured:
[1] = Dry grinding simulation experiments (mortar and pestle, XRPD); format: physicochemical
Description: (§1) Feasibility of formulation process for Pattern A was evaluated by compression, grinding, and granulation simulation experiments. […] About 20 mg of Pattern A crystalline polymorph was ground manually with a mortar and pestle for 1, 3, and 5 min. Potential form change and degree of crystallinity were evaluated by XRPD.

[2] = Bulk stability of Pattern A (XRPD, HPLC, color) after 1 week storage; format: physicochemical; conditions: for Bulk (XRPD) form after storage / Color after storage / Bulk (HPLC) purity after storage: Solid state, 1 week; for Bulk (HPLC) purity after storage: initial purity 99.9%
Description: Bulk stability of Pattern A was evaluated at 25° C./92% RH in an open container, at 40° C./75% RH in an open container, and at 60° C. in a tight container over 1 week. […] Pattern A crystalline polymorph was placed at 25° C./92% RH in an open container, at 40° C./75% RH in an open container, and at 60° C. in a closed container for 1 week. Samples after the stress were characterized by XRPD and HPLC and inspected for color change.

[3] = Compression simulation experiments (hydraulic press, XRPD); format: physicochemical; conditions: for Comments (crystallinity after compression) / XRPD after compression: 5 minutes
Description: as §1, with “10” for “20”, “compressed for 5 minutes under 5 MPa and 10 MPa” for “ground manually”, “hydraulic press.” for “mortar and pestle for 1, 3, and 5 min.”

[4] = Wet granulation simulation experiments (XRPD); format: physicochemical
Description: Feasibility of formulation process for Pattern A was evaluated by compression, grinding, and granulation simulation experiments. […] Water or ethanol was added drop wise to about 20 mg of Pattern A crystalline polymorph until the sample was wetted sufficiently. Wet sample was ground gently with a mortar and pestle. Post granulation sample was dried under ambient condition for 3 min. Potential form change and degree of crystallinity were evaluated by XRPD.

[5] = Water sorption and desorption (hygroscopicity) by dynamic vapor sorption (DVS); format: physicochemical; conditions: 25° C.
Description: Hygroscopicity of Pattern A was evaluated by dynamic vapor sorption (DVS) test at 25° C. with a cycle of 40→0→95→0→40% RH at a rate of change in mass per time unit of 0.002% per minute. […] It absorbed about 1.2% water at 80% RH and 3.1% water at 95% RH at 25° C. (FIG. 8). […] Water sorption and desorption behavior of Pattern A crystalline polymorph was investigated by DVS at 25° C. with a cycle of 40-0-95-0-40% RH, dm/dt 0.002, minimum equilibration time 60 min, and maximum equilibration time 360 min. XRPD was measured after the DVS test to determine form change.

[6] = biological target: T1, human LPAR1 (Homo sapiens, UniProt Q92633); experiment: In vitro functional assay of lysophosphatidic acid receptor 1 activity (calcium flux, Fluo-4 NW, LPA 18:1 at EC80); format: cell-based; conditions: B103 cells stably expressing human LPAR1
T1 construct: by own knowledge a rat neuroblastoma line
Description: Primary compound plates were prepared in 100% DMSO (Sigma-Aldrich), secondary compound plates were prepared at 10× concentration in DMEM (Invitrogen), and tertiary compound plates were prepared at 3× concentration in assay buffer containing HBSS (no Ca^+2/Mg^−2. Invitrogen) and 0.1% BSA (Sigma-Aldrich). Fluo-4 NW calcium assay dye (Invitrogen) was prepared as per manufacturer's recommendations in assay buffer. B103 cells stably expressing human LPAR1 (J. Chun lab, UCSD) were grown to confluency in DMEM media (Invitrogen) containing 10% FBS (ATCC), […] (Sigma-Aldrich) and […] (Sigma-Aldrich), and detached with Accutase (Sigma-Aldrich) prior to assay. The freshly detached cells were resuspended in growth media and plated in black, clear-bottom 96-well plates (Costar) containing compound (i.e., secondary compound plate) at a density of 5×10^4 cells/well. Once plated, cells were left at room temperature for 30 minutes and then transferred to a 37° C. 5% CO2 incubator for 24 hours. […] Finally, lysophosphatidic acid (18:1) at the EC80 concentration was added and calcium flux measured using FlexStation 3 (Molecular Devices). Sigmoidal dose-response curves were generated by measuring […] over 45 sec and calculating the area under the curve. […]

[7] = grinding time 1 min, mortar and pestle

T1 sequence (Q92633 whole entry): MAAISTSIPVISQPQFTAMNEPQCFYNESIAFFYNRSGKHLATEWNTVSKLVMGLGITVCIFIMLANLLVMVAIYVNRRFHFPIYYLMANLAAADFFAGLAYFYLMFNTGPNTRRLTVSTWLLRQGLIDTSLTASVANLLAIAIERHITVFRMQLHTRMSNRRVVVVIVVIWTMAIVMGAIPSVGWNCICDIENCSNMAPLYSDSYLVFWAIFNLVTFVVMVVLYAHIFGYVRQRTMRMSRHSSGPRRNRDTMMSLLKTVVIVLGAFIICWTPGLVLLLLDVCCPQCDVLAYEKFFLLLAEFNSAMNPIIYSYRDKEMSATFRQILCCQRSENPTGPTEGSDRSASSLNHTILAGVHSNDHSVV

In the case of `COc1ccc(NC(=O)N(c2ccccc2C(C)C)[C@H]2CC[C@H](C(=O)O)CC2)c(OC(F)F)n1` [Pattern A, trans-4-(3-(2-(difluoromethoxy)-6-methoxypyridin-3-yl)-1-(2-isopropylphenyl)ureido)cyclohexane-1-carboxylic acid], the “Form after manual grinding” value ([1]; after 3 minutes of grinding with a mortar and pestle) is reported as “converted to practically amorphous form”, the “Comments (crystallinity after dry grinding)” value [1, 7] is reported as “Peaks becoming broader; also recorded: Partial amorphization” and the “XRPD after dry grinding” value [1, 7] is reported as “Pattern A”. The “XRPD after dry grinding” value ([1]; grinding time 3 min, mortar and pestle) was “Almost amorphous”, the “XRPD after dry grinding” value ([1]; grinding time 5 min, mortar and pestle) was “Almost amorphous” and the “Bulk stability (physical and chemical)” value ([2]; 25° C./92% RH open container, 40° C./75% RH open container, 60° C. tight container, over 1 week) was “physically and chemically stable”. For the same compound, the “Bulk (XRPD) form after storage” value ([2]; 25° C./92% RH, open container) was “Pattern A (FIG. 7)”, the Color after storage ([2]; 25° C./92% RH, open container) was “No change” and the “Bulk (HPLC) purity after storage” value ([2]; 25° C./92% RH, open container) was 99.9%. The “Bulk (XRPD) form after storage” value ([2]; 40° C./75% RH, open container) was “Pattern A (FIG. 7)”, the Color after storage ([2]; 40° C./75% RH, open container) was “No change” and the “Bulk (HPLC) purity after storage” value ([2]; 40° C./75% RH, open container) was 99.9%. The “Bulk (XRPD) form after storage” value ([2]; 60° C., tight container) was “Pattern A (FIG. 7)”, the Color after storage ([2]; 60° C., tight container) was “No change” and the “Bulk (HPLC) purity after storage” value ([2]; 60° C., tight container) was 99.9%. For the same compound, the “Comments (crystallinity after compression)” value ([3]; 5 MPa) was “Slight decrease in crystallinity; also recorded: Peaks becoming broader”, the XRPD after compression ([3]; 5 MPa) was “Pattern A” and the “Comments (crystallinity after compression)” value ([3]; 10 MPa) was “Slight decrease in crystallinity; also recorded: Peaks becoming broader”. For the same compound, the XRPD after compression ([3]; 10 MPa) was “Pattern A”, the “Crystallinity change upon compression” value ([3]; compression (5 MPa and 10 MPa)) was “only slight crystallinity decrease” and the “Form change upon compression” value ([3]; compression (5 MPa and 10 MPa)) was “no form change”. For the same compound, the “Comments (crystallinity after wet granulation)” value ([4]; granulation solvent ethanol) was “Peaks becoming broader; also recorded: Partial amorphization; also recorded: Significant decrease in”, the “XRPD after wet granulation” value ([4]; granulation solvent ethanol) was “Pattern A” and the “Comments (crystallinity after wet granulation)” value ([4]; granulation solvent water) was “Significant decrease in; also recorded: Peaks becoming broader; also recorded: Partial amorphization”. For the same compound, the “XRPD after wet granulation” value ([4]; granulation solvent water) was “Pattern A”, the “Crystallinity/form upon wet granulation” value ([4]; wet granulation with ethanol or water) was “partial amorphization was observed” and the “1st desorp. Weight % change” value ([5]; 0% RH) was 0.03%. For the same compound, the “1st sorp. Weight % change” value ([5]; 0% RH) was 0.03%, the “2nd desorp. Weight % change” value ([5]; 0% RH) was 0.00% and the “2nd sorp. Weight % change” value ([5]; 0% RH) was 0.00%. The “1st desorp. Weight % change” value ([5]; 10% RH) was 0.05%, the “1st sorp. Weight % change” value ([5]; 10% RH) was 0.05% and the “2nd desorp. Weight % change” value ([5]; 10% RH) was 0.02%. For the same compound, the “2nd sorp. Weight % change” value ([5]; 10% RH) was 0.02%, the “1st desorp. Weight % change” value ([5]; 20% RH) was 0.05% and the “1st sorp. Weight % change” value ([5]; 20% RH) was 0.05%. For the same compound, the “2nd desorp. Weight % change” value ([5]; 20% RH) was 0.03%, the “2nd sorp. Weight % change” value ([5]; 20% RH) was 0.02% and the “1st desorp. Weight % change” value ([5]; 30% RH) was 0.06%. The “1st sorp. Weight % change” value ([5]; 30% RH) was 0.05%, the “2nd desorp. Weight % change” value ([5]; 30% RH) was 0.03% and the “2nd sorp. Weight % change” value ([5]; 30% RH) was 0.02%. For the same compound, the “1st desorp. Weight % change” value ([5]; 40% RH) was 0.06%, the “1st sorp. Weight % change” value ([5]; 40% RH) was 0.05% and the “2nd desorp. Weight % change” value ([5]; 40% RH) was 0.04%. The “2nd sorp. Weight % change” value ([5]; 40% RH) was 0.03%, the “1st sorp. Weight % change” value ([5]; 50% RH) was 0.06% and the “2nd desorp. Weight % change” value ([5]; 50% RH) was 0.35%. The “1st sorp. Weight % change” value ([5]; 60% RH) was 0.06%, the “2nd desorp. Weight % change” value ([5]; 60% RH) was 0.64% and the “1st sorp. Weight % change” value ([5]; 70% RH) was 0.07%. For the same compound, the “2nd desorp. Weight % change” value ([5]; 70% RH) was 0.84%, the “1st sorp. Weight % change” value ([5]; 80% RH) was 1.15% and the “2nd desorp. Weight % change” value ([5]; 80% RH) was 1.16%. For the same compound, the Hygroscopicity ([5]; 80% RH) was “slightly hygroscopic”, the Water absorbed ([5]; 80% RH) was “about 1.2%” and the “1st sorp. Weight % change” value ([5]; 90% RH) was 1.93%. For the same compound, the “2nd desorp. Weight % change” value ([5]; 90% RH) was 1.93%, the “1st sorp. Weight % change” value ([5]; 95% RH) was 3.06% and the “2nd desorp. Weight % change” value ([5]; 95% RH) was 3.06%. For the same compound, the Hygroscopicity ([5]; 95% RH) was “hygroscopic”, the Water absorbed ([5]; 95% RH) was ~3.1% and the “XRPD after DVS test” value ([5]; after cycle 40-0-95-0-40% RH) was “still Pattern A; also recorded: No form change (FIG. 9)”.
Compound `COc1ccc(NC(=O)N(c2ccccc2C(C)C)[C@H]2CC[C@H](C(=O)O)CC2)c(OC(F)F)n1` [trans-4-(3-(2-(difluoromethoxy)-6-methoxypyridin-3-yl)-1-(2-isopropylphenyl)ureido)cyclohexane-1-carboxylic acid] has an IC50 [6] of 10 nM.
